# According to patent publication US20240325433A1, “MOLECULAR ASSOCIATION OF BILE ACID OR BILE SALT AND PHARMACEUTICAL COMPOSITION COMPRISING SAME FOR LOCALLY REDUCING FAT” (SCAI THERAPEUTICS CO., LTD., priority 2021, published 2024):
# Key:
# [1] = test system: dermis white adipose tissue; assay: SD rat skin penetration test: histological analysis (H&E, Masson's trichome staining); type: in vivo, SD rats; conditions: 1%, 500 μL subcutaneous injection
# From the text: The interscapular region (back of the neck near the ear) of 10-week-old SD rats (280-350 g) with sufficient subcutaneous adipose tissue was shaved and anesthetized. […].
# Then, tissues (skin, subcutaneous tissue) of the interscapular region were collected, fixed, and subjected to H&E staining and Masson's trichome staining. Tissue changes were investigated through microscopic observation.
# 3T3-L1 preadipocytes = assay: Preadipocyte cytotoxicity (cell counting kit-8); type: cell-based; conditions: treated 4 hours
# Description: 3T3-L1 preadipocytes were inoculated into a 96 well plate at 5×10^3 per well, grown in medium (high glucose DMEM, 10% bovine calf serum, 1% penicillin/streptomycin) for 16 hours. The drug was prepared to contain 0.04% and 0.08%, respectively, and then treated for 4 hours. After adding 10 μl of Dojingo CK04-11 cell counting kit-8 to each well according to the manual, reacting for 2 hours, the absorbance at 450 nm was measured with a spectrophotometer to compare preadipocyte cytotoxicity.
# [2] = SD rat skin penetration test: DCA distribution in subcutaneous tissue, skin and plasma; set-up: species or system SD rats; conditions: in vivo, sc
# From the text: The interscapular region (back of the neck near the ear) of 10-week-old SD rats (280-350 g) with sufficient subcutaneous adipose tissue was shaved and anesthetized.
# [3] = cited from earlier work
smiles,measurement,setting,value
C[C@H](CCC(=O)O)[C@H]1CC[C@H]2[C@@H]3CC[C@@H]4C[C@H](O)CC[C@]4(C)[C@H]3C[C@H](O)[C@]12C [deoxycholic acid],H&E staining: tissue change,[1],severe tissue damage was observed
same,Masson's trichome staining: tissue change,[1],hematoma and edema occurred in the tissue
same,preadipocyte cytotoxicity (comparison between materials),3T3-L1 preadipocytes; 0.04%,the same
same,survival rate of preadipocytes,"3T3-L1 preadipocytes; 0.08%, absorbance 450 nm",24.6%
same,amount of DCA in subcutaneous tissue,[2],gradually decreased
same,solubility in water,[3],0.024%
